Test results taken from US4965283A, “Amino acid esters, process for the preparation thereof and use thereof” (Dr. Willmar Schwabe GmbH & Co., priority 1987, dated 1990).
Where a name gives a salt, the structure may show the parent alone. Read-outs that look alike come from different tables or passages of the source.

Tests used:
[1] = tested on: maximum electroshock spasm (MES), extensor spasm in mice; assay: MES test (maximum electroshock; inhibition of extensor spasm); type: in vivo, male mice (NMRI); details: for responders at 50 mg/kg / ED50 / responders at 100 mg/kg / responders at 25 mg/kg: Mus musculus; for ED50: read-out: ED 50 values; for responders at 50 mg/kg / protective action [%] after 1 hr / protective action [%] after 3 hrs: 50 mg/kg; for ED 50 values (estimated values): * estimated from several tests with different dosages
Description: For the determination of the anticonvulsive/anti-epileptic activity of the substances according to the present invention the method described by E. A. Swinyard et al., J. Pharmacol. exp. Therapeut. 106, 319-330 (1952) and by L. A. Woodbury et al., Arch. int. Pharmacodyn., 92, 97-107 (1952) was used. To male mice (NMRI) with a body weight of 20-25 g via corneal electrodes, an alternating current of 50 Hz and 50 mA is applied for 0.2 sec. (HSE-shock stimulation apparatus; type 207). The maximum electroshock spasm (MES) consists of a tonic extension of the rear extremities, the clonic twitch and loss of consciousness. The activity criterion is taken as being the inhibition of the extensor spasm by the substances according to the present invention. Before the experiments the mice had free access to feed and water. The test substances were administered orally as suspensions in 0.2% agar by stomach tubes; the control animals received adequate volumes of agar. 1 hour and 3 hours after administration the test for protective action against MES was carried out.
As percentage action the percentage proportion of those animals which in the MES test were protected 100% against the extensor spasm is given. 10 animals were used per test.
The ED 50 values were determined according to Lichtfield and Wilcoxon J. Pharmacol. exp. Therapeut. 96, 99 (1949) in each case with 4 to 5 animal groups each of 8-10 animals per dosage stage.

[2] = tested on: mouse; assay: observation for neurotoxicity symptoms (motility, muscle tonus, respiratory frequency, body temperature, general behaviour); type: in vivo
Procedure: During the experiments described above, the animals were observed during the whole of the experimental period (up to 4 hours) for signs of substance-caused changes of behaviour and neurotoxicity (motility, muscle tonus, respiratory frequency, body temperature and general behaviour).

[3] = tested on: maximum electroshock spasm (MES), extensor spasm in mice; assay: MES test (maximum electroshock; inhibition of extensor spasm); type: in vivo, male mice (NMRI); details: Mus musculus, ip, 1 h, read-out: protective action [%] after 1 hr
[4] = po, 1 h, oral, 1 hr after administration, n = 10, read-out: protective action [%] after 1 hr
[5] = po, 1 h, MES test, oral, 1 hour after administration
[6] = po, 3 h, oral, 3 hrs after administration, n = 10, read-out: protective action [%] after 3 hrs
[7] = po, 1 h, 100 mg/kg, oral, 1 hr after administration, n = 10, read-out: protective action [%] after 1 hr
[8] = po, 3 h, 100 mg/kg, oral, 3 hrs after administration, n = 10, read-out: protective action [%] after 3 hrs
[9] = oral, 1 hr after administration, n = 10
[10] = oral, 3 hrs after administration, n = 10
[11] = MES test, oral, 1 hour after administration

`O=C1NC(=O)C(c2ccccc2)(c2ccccc2)N1` [phenytoin, diphenylhydantoin, reference compound] showed a responders at 50 mg/kg [1, 4] of 100%, an ED50 [1, 5] of 9.1 mg/kg and a responders at 50 mg/kg [1, 6] of 100%. For the same compound, the “Neurotoxic limiting dose in the mouse, dose p.o.” value ([2]; in vivo, po) was 100 mg/kg.

With `NC(=O)N1c2ccccc2C=Cc2ccccc21` [carbamazepine, reference compound] the responders at 50 mg/kg [1, 4] was 100%, the responders at 50 mg/kg [1, 6] was 100% and the “Neurotoxic limiting dose in the mouse, dose p.o.” value ([2]; in vivo, po) was 100 mg/kg.

In the case of `CCCC(CCC)C(=O)O` [valproic acid, reference compound], the ED50 ([1]; ip, 1 h) was 205 mg/kg, the responders at 100 mg/kg ([1]; ip, 3 h, read-out: protective action [%] after 3 hrs) was 0% and the “Neurotoxic limiting dose in the mouse, dose p.o.” value ([2]; p.o.) was 350 mg/kg. The responders at 100 mg/kg [3] was 0%.

`CCC1(c2ccccc2)C(=O)NC(=O)NC1=O` [phenobarbital, reference compound] was tested, and the ED50 ([1]; po, 1 h) was 19.2 mg/kg, the responders at 100 mg/kg ([1]; po, 1 h, read-out: protective action [%] after 1 hr) was 100% and the responders at 100 mg/kg ([1]; po, 3 h, read-out: protective action [%] after 3 hrs) was 100%. For the same compound, the “Neurotoxic limiting dose in the mouse, dose p.o.” value ([2]; p.o.) was 60 mg/kg.

With `CCCC(C)C1(CC)C(=O)NC(=O)NC1=O` (stereo not shown) [pentobarbital] the “Neurotoxic limiting dose in the mouse, dose p.o.” value ([2]; p.o.) was 60 mg/kg.

Compound `CCC1(C)CC(=O)NC1=O` (stereo not shown) [ethosuximide, reference compound] has a responders at 100 mg/kg [1, 7] of 0%, a responders at 100 mg/kg [1, 8] of 0% and an ED50 ([1]; po, 4 h, MES test, oral, ** 4 hours after administration) greater than 250 mg/kg. For the same compound, the “Neurotoxic limiting dose in the mouse, dose p.o.” value ([2]; in vivo, po) was 500 mg/kg.

For `COC1=CC(=O)OC1C(OC(=O)CNC(=O)C(C)(C)C)c1ccccc1Cl` (single isomer, unassigned; (+)) [Example 152, (+)-threo-5-[2-chlorophenyl-(N-pivaloylglycyloxy)-methyl]-4-methoxy-2(5H)-furanone], the “protective action [%] after 1 hr” value [1, 9] was 100%, the “protective action [%] after 3 hrs” value [1, 10] was 90% and the “ED 50 values” [1, 11] was 16.3 mg/kg.

For `COC1=CC(=O)O[C@H]1[C@H](OC(=O)CN)c1ccccc1Cl` (relative stereo) [Example 111, threo-5-[2-chlorophenyl-(glycyloxy)-methyl]-4-methoxy-2(5H)-furanone hydrobromide], the responders at 50 mg/kg [1, 4] was 100%, the ED50 [1, 5] was 24.2 mg/kg and the responders at 50 mg/kg [1, 6] was 80%.

`COC1=CC(=O)O[C@H]1[C@H](OC(=O)[C@@H]1CCCN1)c1ccccc1Cl` [103 B] was tested, and the responders at 100 mg/kg [1, 7] was 50%, the ED50 [1, 5] was 95 mg/kg and the responders at 100 mg/kg [1, 8] was 0%.

For `COC1=CC(=O)O[C@H]1[C@H](OC(=O)C(C)(C)N)c1ccccc1Cl` (relative stereo) [Example 155, threo-5-[2-chlorophenyl-(2-methylalanyloxy)-methyl]-4-methoxy-2(5H)-furanone-hydrobromide], the “ED 50 values (estimated values)” value [1, 11] was 20 to 30 mg/kg, the responders at 25 mg/kg [1, 4] was 50% and the responders at 25 mg/kg [1, 6] was 10%.

`COC1=CC(=O)O[C@@H]1[C@@H](OC(=O)[C@@H]1CCCN1)c1ccccc1Cl` [103 A] was tested, and the responders at 100 mg/kg [1, 7] was 100%, the ED50 [1, 5] was 10.7 mg/kg and the responders at 100 mg/kg [1, 8] was 100%.

With `COC1=CC(=O)OC1C(OC(=O)[C@@H]1CCCN1)c1ccccc1C(F)(F)F` (single isomer, unassigned) [139 A] the “ED 50 values (estimated values)” value [1, 11] was 15 to 20 mg/kg, the responders at 50 mg/kg [1, 4] was 100% and the responders at 50 mg/kg [1, 6] was 50%.

`COC1=CC(=O)OC1C(OC(=O)[C@H](Cc1ccccc1)N=C(C)C)c1ccccc1Cl` (single isomer, unassigned) [121 A] gave a responders at 50 mg/kg [1, 4] of 100% and a responders at 50 mg/kg [1, 6] of 90%.

With `COC1=CC(=O)OC1C(OC(=O)[C@@H](N)c1ccccc1)c1ccccc1` (single isomer, unassigned) [108 A] the “ED 50 values (estimated values)” value [1, 11] was 70 to 80 mg/kg, the responders at 100 mg/kg [1, 7] was 90% and the responders at 100 mg/kg [1, 8] was 0%.

`COC1=CC(=O)OC1C(OC(=O)CNC(C)=O)c1ccccc1Cl` (single isomer, unassigned; (+)) [Example 150] was tested, and the “protective action [%] after 1 hr” value [1, 9] was 100%, the “protective action [%] after 3 hrs” value [1, 10] was 100% and the “ED 50 values” [1, 11] was 14.4 mg/kg.
